Reference: PMC5218480 (PLoS ONE, 2017)

Tested on: MV-4-11 cells
Assay: Gene expression microarray analysis (Affymetrix PrimeView) and GSEA
Format: cell-based, human
Design: RFU PODN (11730768_x_at) / Fold change /veh PODN (11730768_x_at) / RFU LINC00158 (11744669_a_at) / Fold change /veh LINC00158 (11744669_a_at) / RFU DUSP10 (11751237_a_at) / Fold change /veh DUSP10 (11751237_a_at) / RFU ID3 (11757404_x_at) / Fold change /veh ID3 (11757404_x_at) / RFU PLEKHG5 (11737974_s_at) / Fold change /veh PLEKHG5 (11737974_s_at) / RFU LRRC4B (11730491_at) / Fold change /veh LRRC4B (11730491_at) / RFU GIMAP4 (11747438_a_at) / Fold change /veh GIMAP4 (11747438_a_at) / RFU KRT8 (11758183_x_at) / Fold change /veh KRT8 (11758183_x_at) / RFU CNN1 (11734310_a_at) / Fold change /veh CNN1 (11734310_a_at) / RFU VPS37D (11726825_at) / Fold change /veh VPS37D (11726825_at) / RFU C10orf10 (11716522_x_at) / Fold change /veh C10orf10 (11716522_x_at) / RFU KIR2DL2 /// KIR2DL4 /// KIR2DL5A /// KIR2DL5B /// KIR2DS1 /// KIR2DS2 /// KIR2DS3 /// KIR2DS4 /// KIR3DL3 /// KIR3DL3 /// KIR3DS1 (11738374_at) / Fold change /veh KIR2DL2 /// KIR2DL4 /// KIR2DL5A /// KIR2DL5B /// KIR2DS1 /// KIR2DS2 /// KIR2DS3 /// KIR2DS4 /// KIR3DL3 /// KIR3DL3 /// KIR3DS1 (11738374_at) / RFU C1QL1 (11718748_at) / Fold change /veh C1QL1 (11718748_at) / RFU TMPRSS4 (11747572_a_at) / Fold change /veh TMPRSS4 (11747572_a_at) / RFU HAMP (11756126_x_at) / Fold change /veh HAMP (11756126_x_at) / RFU RNFT2 (11725882_a_at) / Fold change /veh RNFT2 (11725882_a_at) / RFU NR4A2 (11747474_a_at) / Fold change /veh NR4A2 (11747474_a_at) / RFU ABCC12 (11746883_a_at) / Fold change /veh ABCC12 (11746883_a_at) / RFU TMEM136 (11760407_x_at) / Fold change /veh TMEM136 (11760407_x_at) / RFU CLDN22 /// WWC2 (11732394_at) / Fold change /veh CLDN22 /// WWC2 (11732394_at) / RFU HLA-DPB1 (11760878_x_at) / Fold change /veh HLA-DPB1 (11760878_x_at) / RFU SPINT1 (11716480_a_at) / Fold change /veh SPINT1 (11716480_a_at) / RFU GAP43 (11754022_s_at) / Fold change /veh GAP43 (11754022_s_at) / RFU A4GNT (11735810_at) / Fold change /veh A4GNT (11735810_at) / RFU PRB3 (11715151_x_at) / Fold change /veh PRB3 (11715151_x_at) / RFU TUBB4B (11761932_at) / Fold change /veh TUBB4B (11761932_at) / RFU CAPN14 (11732068_a_at) / Fold change /veh CAPN14 (11732068_a_at) / RFU TMCC2 (11721928_a_at) / Fold change /veh TMCC2 (11721928_a_at) / RFU IRGQ (11745062_a_at) / Fold change /veh IRGQ (11745062_a_at) / RFU FAM174B (11720279_a_at) / Fold change /veh FAM174B (11720279_a_at) / RFU TMPRSS4 (11748680_a_at) / Fold change /veh TMPRSS4 (11748680_a_at) / RFU FAM212B (11763350_a_at) / Fold change /veh FAM212B (11763350_a_at) / RFU PLEKHG5 (11743358_a_at) / Fold change /veh PLEKHG5 (11743358_a_at) / RFU ZSCAN30 (11745921_a_at) / Fold change /veh ZSCAN30 (11745921_a_at) / RFU CMKLR1 (11741424_a_at) / Fold change /veh CMKLR1 (11741424_a_at) / RFU LOC101060620 /// MAPK8IP1 (11723275_at) / Fold change /veh LOC101060620 /// MAPK8IP1 (11723275_at) / RFU SPTSSB (11747773_x_at) / Fold change /veh SPTSSB (11747773_x_at) / RFU PRSS12 (11739890_at) / Fold change /veh PRSS12 (11739890_at) / RFU BIN1 (11741810_x_at) / Fold change /veh BIN1 (11741810_x_at) / RFU WNT11 (11732464_a_at) / Fold change /veh WNT11 (11732464_a_at) / RFU C10orf10 (11716521_a_at) / Fold change /veh C10orf10 (11716521_a_at) / RFU C5orf56 (11738089_at) / Fold change /veh C5orf56 (11738089_at) / RFU CYB561 (11721691_x_at) / Fold change /veh CYB561 (11721691_x_at) / RFU ANKRD19P (11752326_a_at) / Fold change /veh ANKRD19P (11752326_a_at) / RFU OR2T12 /// OR2T33 /// OR2T8 (11738714_s_at) / Fold change /veh OR2T12 /// OR2T33 /// OR2T8 (11738714_s_at) / RFU VCAN (11748164_a_at) / Fold change /veh VCAN (11748164_a_at) / RFU JSRP1 (11732532_at) / Fold change /veh JSRP1 (11732532_at) / RFU KRTAP10-11 (11738290_x_at) / Fold change /veh KRTAP10-11 (11738290_x_at) / RFU MYO3A (11730013_a_at) / Fold change /veh MYO3A (11730013_a_at) / RFU EBF3 (11725865_a_at) / Fold change /veh EBF3 (11725865_a_at) / RFU CAMK2N1 (11719241_x_at) / Fold change /veh CAMK2N1 (11719241_x_at) / RFU C5orf56 (11738088_a_at) / Fold change /veh C5orf56 (11738088_a_at) / RFU OLFML3 (11715873_a_at) / Fold change /veh OLFML3 (11715873_a_at) / RFU LOC100653217 /// NTM (11731650_a_at) / Fold change /veh LOC100653217 /// NTM (11731650_a_at) / RFU MAPK11 (11762145_a_at) / Fold change /veh MAPK11 (11762145_a_at) / RFU FIZ1 (11724087_x_at) / Fold change /veh FIZ1 (11724087_x_at) / RFU OASL (11726364_x_at) / Fold change /veh OASL (11726364_x_at) / RFU SOX15 (11748057_x_at) / Fold change /veh SOX15 (11748057_x_at) / RFU CD79A (11719716_a_at) / Fold change /veh CD79A (11719716_a_at) / RFU HIST1H1D (11736915_at) / Fold change /veh HIST1H1D (11736915_at) / RFU CASKIN2 (11723855_a_at) / Fold change /veh CASKIN2 (11723855_a_at) / RFU LOC730098 (11760151_x_at) / Fold change /veh LOC730098 (11760151_x_at) / RFU OR4N2 (11742367_at) / Fold change /veh OR4N2 (11742367_at) / RFU PRRT2 (11749266_a_at) / Fold change /veh PRRT2 (11749266_a_at) / RFU SNX32 (11753110_a_at) / Fold change /veh SNX32 (11753110_a_at) / RFU CDHR5 (11726645_a_at) / Fold change /veh CDHR5 (11726645_a_at) / RFU RCAN1 (11760418_a_at) / Fold change /veh RCAN1 (11760418_a_at) / RFU FAM167A (11723789_a_at) / Fold change /veh FAM167A (11723789_a_at) / RFU FAM26E (11764081_at) / Fold change /veh FAM26E (11764081_at) / RFU ISYNA1 (11749810_s_at) / Fold change /veh ISYNA1 (11749810_s_at) / RFU ACY1 (11761880_at) / Fold change /veh ACY1 (11761880_at) / RFU 11764098_at / Fold change /veh 11764098_at / RFU SAMD14 (11745864_x_at) / Fold change /veh SAMD14 (11745864_x_at) / RFU NPB (11741838_a_at) / Fold change /veh NPB (11741838_a_at) / RFU TMPRSS6 (11731388_a_at) / Fold change /veh TMPRSS6 (11731388_a_at) / RFU KRTAP10-2 (11738614_at) / Fold change /veh KRTAP10-2 (11738614_at) / RFU ARHGAP8 /// PRR5-ARHGAP8 (11727945_x_at) / Fold change /veh ARHGAP8 /// PRR5-ARHGAP8 (11727945_x_at) / RFU KRTAP5-7 /// NADSYN1 (11734609_at) / Fold change /veh KRTAP5-7 /// NADSYN1 (11734609_at) / RFU RASL12 (11751679_a_at) / Fold change /veh RASL12 (11751679_a_at) / RFU CDKN2B (11736163_a_at) / Fold change /veh CDKN2B (11736163_a_at) / RFU PRF1 (11729649_at) / Fold change /veh PRF1 (11729649_at) / RFU, ZNF638 /// ZNF638-IT1 / Fold change vs veh, ZNF638 /// ZNF638-IT1 / RFU, PANK3 / Fold change vs veh, PANK3 / RFU, SH3YL1 / Fold change vs veh, SH3YL1 / RFU, ZEB2 / Fold change vs veh, ZEB2 / RFU, NRIP1 / Fold change vs veh, NRIP1 / RFU, PTTG1IP / Fold change vs veh, PTTG1IP / RFU, CAPN2 / Fold change vs veh, CAPN2 / RFU, MED14 / Fold change vs veh, MED14 / RFU, SNORA58 / Fold change vs veh, SNORA58 / RFU, C1orf63 / Fold change vs veh, C1orf63 / RFU, LRRFIP1 / Fold change vs veh, LRRFIP1 / RFU, NDUFAF7 / Fold change vs veh, NDUFAF7 / RFU, SLC12A2 / Fold change vs veh, SLC12A2 / RFU, IBTK / Fold change vs veh, IBTK / RFU, ESF1 / Fold change vs veh, ESF1 / Fold change vs veh, TMEM50B / RFU, TAOK1 / Fold change vs veh, TAOK1 / RFU, ACBD3 / Fold change vs veh, ACBD3 / RFU, TMA16 / Fold change vs veh, TMA16 / RFU, RWDD3 / Fold change vs veh, RWDD3 / RFU, BCAT1 / Fold change vs veh, BCAT1 / RFU, EDEM3 / Fold change vs veh, EDEM3 / RFU, TMEM33 / Fold change vs veh, TMEM33 / RFU, WDR75 / Fold change vs veh, WDR75 / RFU, AHCTF1 / Fold change vs veh, AHCTF1 / RFU, TFRC / Fold change vs veh, TFRC / RFU, ZDHHC17 / Fold change vs veh, ZDHHC17 / RFU, NOM1 / Fold change vs veh, NOM1 / RFU, ARL8B / Fold change vs veh, ARL8B / RFU, ZBTB11 / Fold change vs veh, ZBTB11 / RFU, TAMM41 / Fold change vs veh, TAMM41 / RFU, KIAA1704 /// LOC100996395 / Fold change vs veh, KIAA1704 /// LOC100996395 / RFU, ING1 / Fold change vs veh, ING1 / RFU, TRMT61B / Fold change vs veh, TRMT61B / RFU, FUBP3 / Fold change vs veh, FUBP3 / RFU, TP53 / Fold change vs veh, TP53 / RFU, TNKS2 / Fold change vs veh, TNKS2 / RFU, ZFP14 / Fold change vs veh, ZFP14 / RFU, ACTR2 / Fold change vs veh, ACTR2 / RFU, PPP3R1 / Fold change vs veh, PPP3R1 / RFU, PIK3R1 / Fold change vs veh, PIK3R1 / RFU, HNRNPA1 / Fold change vs veh, HNRNPA1 / RFU, RNF170 / Fold change vs veh, RNF170 / RFU, ZNF28 / Fold change vs veh, ZNF28 / RFU, RNGTT / Fold change vs veh, RNGTT / RFU, OGT / Fold change vs veh, OGT / RFU, BRD1 / Fold change vs veh, BRD1 / RFU, MARS / Fold change vs veh, MARS / RFU, ZNF655 / Fold change vs veh, ZNF655 / RFU, FAHD1 / Fold change vs veh, FAHD1 / RFU, BDP1 / Fold change vs veh, BDP1 / RFU, LRRCC1 / Fold change vs veh, LRRCC1 / RFU, ARID1A / Fold change vs veh, ARID1A / RFU, ZNF146 / Fold change vs veh, ZNF146 / RFU, ZNF330 / Fold change vs veh, ZNF330 / RFU, GPN3 / Fold change vs veh, GPN3 / RFU, C9orf123 / Fold change vs veh, C9orf123 / RFU, N4BP2L2 / Fold change vs veh, N4BP2L2 / RFU, ARFIP1 / Fold change vs veh, ARFIP1 / RFU, FAM179B / Fold change vs veh, FAM179B / RFU, BCL10 / Fold change vs veh, BCL10 / RFU, UHRF1BP1L / Fold change vs veh, UHRF1BP1L / RFU, BET1 / Fold change vs veh, BET1 / RFU, CNOT2 / Fold change vs veh, CNOT2 / RFU, ZNF268 / Fold change vs veh, ZNF268 / Fold change vs veh, ZNF507 / RFU, DGCR2 / Fold change vs veh, DGCR2 / RFU, WDSUB1 / Fold change vs veh, WDSUB1 / Fold change vs veh, HSP90B1 /// MIR3652 / RFU, ADSS / Fold change vs veh, ADSS / RFU, GK / Fold change vs veh, GK / RFU, ZNF148 / Fold change vs veh, ZNF148 / RFU, TAF9 / Fold change vs veh, TAF9 / RFU, SLC1A5 / Fold change vs veh, SLC1A5 / RFU, SLMO2 / Fold change vs veh, SLMO2 / RFU, ABCC4 / Fold change vs veh, ABCC4 / RFU, LOC101060439 /// RAP1B / Fold change vs veh, LOC101060439 /// RAP1B / RFU, RFX7 / Fold change vs veh, RFX7 / RFU, GTPBP10 / Fold change vs veh, GTPBP10 / RFU, CNEP1R1 / Fold change vs veh, CNEP1R1 / RFU, BIVM-ERCC5 /// ERCC5 / Fold change vs veh, BIVM-ERCC5 /// ERCC5 / RFU, ILF3 / Fold change vs veh, ILF3 / RFU 11762660_at / Fold change /veh 11762660_at / RFU VCAN (11757783_s_at) / Fold change /veh VCAN (11757783_s_at) / RFU DDX43 (11728927_at) / Fold change /veh DDX43 (11728927_at) / RFU KRT8 (11758188_x_at) / Fold change /veh KRT8 (11758188_x_at) / RFU NKD1 (11759106_at) / Fold change /veh NKD1 (11759106_at) / RFU SRD5A1 (11742802_a_at) / Fold change /veh SRD5A1 (11742802_a_at) / RFU TPSAB1 /// TPSB2 (11721975_s_at) / Fold change /veh TPSAB1 /// TPSB2 (11721975_s_at) / RFU GSTM3 (11746129_a_at) / Fold change /veh GSTM3 (11746129_a_at) / RFU IL23R (11737362_x_at) / Fold change /veh IL23R (11737362_x_at) / RFU TMEM51 (11727254_a_at) / Fold change /veh TMEM51 (11727254_a_at) / RFU PIWIL2 (11732686_x_at) / Fold change /veh PIWIL2 (11732686_x_at) / RFU ORM1 (11744905_x_at) / Fold change /veh ORM1 (11744905_x_at) / RFU CCDC152 (11743942_at) / Fold change /veh CCDC152 (11743942_at) / RFU ECM1 (11717891_a_at) / Fold change /veh ECM1 (11717891_a_at) / RFU IL23R (11748794_a_at) / Fold change /veh IL23R (11748794_a_at) / RFU TNFAIP8L3 (11732012_x_at) / Fold change /veh TNFAIP8L3 (11732012_x_at) / RFU MBOAT4 (11741988_at) / Fold change /veh MBOAT4 (11741988_at) / RFU 11764193_at / Fold change /veh 11764193_at / RFU TMEM53 (11763286_at) / Fold change /veh TMEM53 (11763286_at) / RFU MAGEB2 (11727129_at) / Fold change /veh MAGEB2 (11727129_at) / RFU TMEM200A (11744735_a_at) / Fold change /veh TMEM200A (11744735_a_at) / RFU CCDC152 (11751479_a_at) / Fold change /veh CCDC152 (11751479_a_at) / RFU FAM211A (11726209_a_at) / Fold change /veh FAM211A (11726209_a_at) / RFU RGS16 (11746705_a_at) / Fold change /veh RGS16 (11746705_a_at) / RFU VCAN (11755009_s_at) / Fold change /veh VCAN (11755009_s_at) / RFU RHOB (11743442_s_at) / Fold change /veh RHOB (11743442_s_at) / RFU RGS16 (11720943_a_at) / Fold change /veh RGS16 (11720943_a_at) / RFU RGS16 (11720944_at) / Fold change /veh RGS16 (11720944_at) / RFU, VPS4B / Fold change vs veh, VPS4B / RFU, CREB1 / Fold change vs veh, CREB1 / RFU, DNAJC13 / Fold change vs veh, DNAJC13 / RFU, GNAQ / Fold change vs veh, GNAQ / RFU, CDK5R1 / Fold change vs veh, CDK5R1 / RFU, ZRANB3 / Fold change vs veh, ZRANB3 / RFU, CUL4A / Fold change vs veh, CUL4A / RFU, CCNY / Fold change vs veh, CCNY / RFU, UFL1 / Fold change vs veh, UFL1 / RFU, COG3 / Fold change vs veh, COG3 / RFU, DIAPH2 / Fold change vs veh, DIAPH2 / RFU, SKA2 / Fold change vs veh, SKA2 / RFU, AFF3 / Fold change vs veh, AFF3 / RFU, LMF1 / Fold change vs veh, LMF1 / RFU, IPO11 / Fold change vs veh, IPO11 / RFU, DFFB / Fold change vs veh, DFFB / RFU, FOXP1 / Fold change vs veh, FOXP1 / RFU, CARD8 / Fold change vs veh, CARD8 / RFU, STRN3 / Fold change vs veh, STRN3 / RFU, ADK / Fold change vs veh, ADK / RFU, RASSF2 / Fold change vs veh, RASSF2 / RFU, WIPF1 / Fold change vs veh, WIPF1 / RFU, LARP1B / Fold change vs veh, LARP1B / RFU, RASA1 / Fold change vs veh, RASA1 / RFU, RB1 / Fold change vs veh, RB1 / RFU, PPFIA1 / Fold change vs veh, PPFIA1 / RFU, MAT2A / Fold change vs veh, MAT2A / RFU, CCT5 / Fold change vs veh, CCT5 / RFU, WDR92 / Fold change vs veh, WDR92 / RFU, CUX1 / Fold change vs veh, CUX1 / RFU, TTC7A / Fold change vs veh, TTC7A / RFU, TMEM135 / Fold change vs veh, TMEM135 / RFU, DEPTOR / Fold change vs veh, DEPTOR / RFU, CPM / Fold change vs veh, CPM / RFU, DNAJB6 / Fold change vs veh, DNAJB6 / RFU, CACNA2D3 / Fold change vs veh, CACNA2D3 / RFU, DTX4 / Fold change vs veh, DTX4 / RFU, TFCP2 / Fold change vs veh, TFCP2 / RFU, GMCL1 /// GMCL1P1 / Fold change vs veh, GMCL1 /// GMCL1P1 / RFU, AEBP2 / Fold change vs veh, AEBP2 / RFU, SNHG1 /// SNORD22 /// SNORD25 /// SNORD26 /// SNORD27 /// SNORD28 /// SNORD29 /// SNORD31 / Fold change vs veh, SNHG1 /// SNORD22 /// SNORD25 /// SNORD26 /// SNORD27 /// SNORD28 /// SNORD29 /// SNORD31 / Fold change (Aza/veh), C12orf56 (ProbeSet 11735607_a_at) / Fold change (ACY-1035/veh), C12orf56 (ProbeSet 11735607_a_at) / Fold change (Aza/veh), FGFR1OP (ProbeSet 11751329_s_at) / Fold change (ACY-1035/veh), FGFR1OP (ProbeSet 11751329_s_at) / Fold change (Aza/veh), VPS36 (ProbeSet 11739960_a_at) / Fold change (ACY-1035/veh), VPS36 (ProbeSet 11739960_a_at) / RFU SYPL1 (11715823_x_at) / Fold change /veh SYPL1 (11715823_x_at) / RFU IGFBP7 (11715501_s_at) / Fold change /veh IGFBP7 (11715501_s_at) / RFU REEP3 (11722064_at) / Fold change /veh REEP3 (11722064_at) / RFU IGLL1 (11728026_x_at) / Fold change /veh IGLL1 (11728026_x_at): dose or concentration left out as unconfirmed
Conditions: MV-4-11 cells, 48 hours

Q: With Nc1ncn([C@@H]2O[C@H](CO)[C@@H](O)[C@H]2O)c(=O)n1 [azacitidine] as the molecule, how does the “RFU LOC100653217 /// NTM (11731650_a_at)” value read?
A: The value was 11.58 RFU.
